# Measured values taken from ChEMBL document CHEMBL1629418, “Spiroimidazolidinone NPC1L1 inhibitors. Part 2: structure-activity studies and in vivo efficacy” (Bioorg Med Chem Lett, 2010).
# Target: T1, NPC1-like intracellular cholesterol transporter 1 (Homo sapiens, UniProt Q9UHC9)
# T1 sequence (Q9UHC9 whole entry): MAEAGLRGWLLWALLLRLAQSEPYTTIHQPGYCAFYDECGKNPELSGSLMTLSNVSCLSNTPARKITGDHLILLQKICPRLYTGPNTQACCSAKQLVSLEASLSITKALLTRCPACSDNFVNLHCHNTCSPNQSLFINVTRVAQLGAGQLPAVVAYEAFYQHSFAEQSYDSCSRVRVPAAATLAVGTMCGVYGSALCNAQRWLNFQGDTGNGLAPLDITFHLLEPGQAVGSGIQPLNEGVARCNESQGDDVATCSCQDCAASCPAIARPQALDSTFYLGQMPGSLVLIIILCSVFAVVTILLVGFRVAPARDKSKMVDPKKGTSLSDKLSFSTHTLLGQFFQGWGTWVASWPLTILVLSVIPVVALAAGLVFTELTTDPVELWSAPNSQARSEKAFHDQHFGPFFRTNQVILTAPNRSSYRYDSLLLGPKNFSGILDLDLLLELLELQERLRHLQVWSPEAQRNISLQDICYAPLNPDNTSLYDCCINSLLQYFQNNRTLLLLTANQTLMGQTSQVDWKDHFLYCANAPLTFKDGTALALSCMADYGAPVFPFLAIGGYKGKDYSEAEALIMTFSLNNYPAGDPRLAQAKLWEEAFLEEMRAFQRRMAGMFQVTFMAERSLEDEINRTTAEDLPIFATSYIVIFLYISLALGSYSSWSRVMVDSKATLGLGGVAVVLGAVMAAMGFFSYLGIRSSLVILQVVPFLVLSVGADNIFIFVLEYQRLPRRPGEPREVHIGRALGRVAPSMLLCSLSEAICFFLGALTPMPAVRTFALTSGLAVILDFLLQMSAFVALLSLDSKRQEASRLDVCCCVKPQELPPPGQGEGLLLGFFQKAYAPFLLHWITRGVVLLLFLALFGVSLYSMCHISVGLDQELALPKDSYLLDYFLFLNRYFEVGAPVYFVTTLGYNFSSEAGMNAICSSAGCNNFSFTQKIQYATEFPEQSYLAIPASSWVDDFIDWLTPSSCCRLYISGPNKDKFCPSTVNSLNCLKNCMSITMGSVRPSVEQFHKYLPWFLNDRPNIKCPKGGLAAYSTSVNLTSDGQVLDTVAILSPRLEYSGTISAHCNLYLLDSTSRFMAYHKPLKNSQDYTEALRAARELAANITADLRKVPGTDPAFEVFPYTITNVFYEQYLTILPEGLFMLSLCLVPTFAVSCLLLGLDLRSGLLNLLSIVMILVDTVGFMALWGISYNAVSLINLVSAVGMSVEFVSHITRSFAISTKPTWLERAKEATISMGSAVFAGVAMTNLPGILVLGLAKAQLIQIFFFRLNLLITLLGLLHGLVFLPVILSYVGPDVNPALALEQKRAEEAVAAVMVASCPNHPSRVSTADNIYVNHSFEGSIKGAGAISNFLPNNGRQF
# Assay: Displacement of [35S](2S,3S,4S,5R,6S)-6-(4-((2S,3R)-3-((S)-3-(4-fluorophenyl)-3-hydroxypropyl)-1-(4-(3-(methylsulfonamido)prop-1-ynyl)phenyl)-4-oxoazetidin-2-yl)phenoxy)-3,4,5-trihydroxytetrahydro-2H-pyran-2-carboxylic acid from human NCP1L1 expressed in HEK 293
# Type: cell-based, HEK293
row,Structure (SMILES),IC50
1,CC(C)(C)c1ccc(C(=O)N2CCC3(CC2)C(=O)N(CC(=O)N2CCC(CO)CC2)CN3c2ccccc2)cc1,4 µM
2,CC(C)(C)OC(=O)NCCNC(=O)CN1CN(c2ccccc2)C2(CCN(C(=O)c3ccc(C(C)(C)C)cc3)CC2)C1=O,9.4 µM
3,CC(C)(C)c1ccc(C(=O)N2CCC3(CC2)C(=O)N(CC(=O)NCCNS(C)(=O)=O)CN3c2ccccc2)cc1,49 µM
4,NC(=O)C1CCCN(C(=O)CN2CN(c3ccccc3)C3(CCN(C(=O)c4ccc(C5CCCCC5)cc4)CC3)C2=O)C1 (centres undefined),3.1 µM
5,CC(C)(C)c1ccc(C(=O)N2CCC3(CC2)C(=O)N(CC(=O)NCCCCO)CN3c2ccccc2)cc1,8.3 µM
6,O=C(CN1CN(c2ccccc2)C2(CCN(C(=O)c3ccc(C4CCCCC4)cc3)CC2)C1=O)N1CCN(S(=O)(=O)c2ccccc2)CC1,14.2 µM
7,CCc1nn(CC)c(C2CCN(C(=O)CN3CN(c4ccccc4)C4(CCN(C(=O)c5ccc(C(C)(C)C)cc5)CC4)C3=O)CC2)c1CC,4.6 µM
8,CC(C)(C)OC(=O)NC1CCCN(C(=O)CN2CN(c3ccccc3)C3(CCN(C(=O)c4ccc(C(C)(C)C)cc4)CC3)C2=O)C1 (centres undefined),4.2 µM
9,CC(C)(C)OC(=O)NCC1CCCN(C(=O)CN2CN(c3ccccc3)C3(CCN(C(=O)c4ccc(C5CCCCC5)cc4)CC3)C2=O)C1 (centres undefined),3.8 µM
10,CC(C)(C)c1ccc(C(=O)N2CCC3(CC2)C(=O)N(CC(=O)NCCCNS(C)(=O)=O)CN3c2ccccc2)cc1,10.4 µM
11,COC(=O)CNC(=O)CN1CN(c2ccccc2)C2(CCN(C(=O)c3ccc(C(C)(C)C)cc3)CC2)C1=O,16.6 µM
12,CC1CCCN(C(=O)CN2CN(c3ccccc3)C3(CCN(C(=O)c4ccc(C(C)(C)C)cc4)CC3)C2=O)C1 (centres undefined),12 µM
13,CC(C)(C)c1ccc(C(=O)N2CCC3(CC2)C(=O)N(CC(=O)NCCCO)CN3c2ccccc2)cc1,23.6 µM
14,CC(C)(C)c1ccc(C(=O)N2CCC3(CC2)C(=O)N(CC(=O)N2CCCCC2CCO)CN3c2ccccc2)cc1 (centres undefined),6.1 µM
15,O=C(CN1CN(c2ccccc2)C2(CCN(C(=O)c3ccc(C4CCCCC4)cc3)CC2)C1=O)N1CCCCC1,1.1 µM
16,CC(C)(C)OC(=O)NC1CCN(C(=O)CN2CN(c3ccccc3)C3(CCN(C(=O)c4ccc(C(C)(C)C)cc4)CC3)C2=O)CC1,8.3 µM
17,CC(C)(C)c1ccc(C(=O)N2CCC3(CC2)C(=O)N(CC(=O)NCCN)CN3c2ccccc2)cc1,59 µM
18,CC(C)(C)c1ccc(C(=O)N2CCC3(CC2)C(=O)N(CC(=O)NCCCN)CN3c2ccccc2)cc1,49 µM
19,CC(C)(C)OC(=O)NCCCCCNC(=O)CN1CN(c2ccccc2)C2(CCN(C(=O)c3ccc(C(C)(C)C)cc3)CC2)C1=O,3.1 µM
20,CC(C)(C)c1ccc(C(=O)N2CCC3(CC2)C(=O)N(CC(=O)NCCO)CN3c2ccccc2)cc1,19.2 µM
21,CCN(CC)C(=O)C1CCCN(C(=O)CN2CN(c3ccccc3)C3(CCN(C(=O)c4ccc(C5CCCCC5)cc4)CC3)C2=O)C1 (centres undefined),3.3 µM
22,CC1(C)CC(OC(=O)CN2CN(c3ccccc3)C3(CCN(C(=O)c4ccc(C(C)(C)C)cc4)CC3)C2=O)CC(C)(C)N1,1.3 µM
23,COC(=O)CCCNC(=O)CN1CN(c2ccccc2)C2(CCN(C(=O)c3ccc(C4CCCCC4)cc3)CC2)C1=O,4.5 µM
24,CC(C)(C)OC(=O)NCC1CCN(C(=O)CN2CN(c3ccccc3)C3(CCN(C(=O)c4ccc(C5CCCCC5)cc4)CC3)C2=O)CC1,2.5 µM
25,CC(C)(C)OC(=O)NCC1CCCN(C(=O)CN2CN(c3ccccc3)C3(CCN(C(=O)c4ccc(C(C)(C)C)cc4)CC3)C2=O)C1 (centres undefined),9.5 µM
26,CC(C)(C)c1ccc(C(=O)N2CCC3(CC2)C(=O)N(CC(=O)NCCCCNS(C)(=O)=O)CN3c2ccccc2)cc1,10.3 µM
27,CC(C)(C)c1ccc(C(=O)N2CCC3(CC2)C(=O)N(CC(=O)N2CCCC(C(N)=O)C2)CN3c2ccccc2)cc1 (centres undefined),16.9 µM

row,Structure (SMILES),IC50
1,CC(C)(C)c1ccc(C(=O)N2CCC3(CC2)C(=O)N(CC(=O)N2CCCC(CO)C2)CN3c2ccccc2)cc1 (centres undefined),8.2 µM
2,CC(C)(C)c1ccc(C(=O)N2CCC3(CC2)C(=O)N(CC(=O)N2CCNCC2)CN3c2ccccc2)cc1,22 µM
3,CCN(CC)C(=O)C1CCCN(C(=O)CN2CN(c3ccccc3)C3(CCN(C(=O)c4ccc(C(C)(C)C)cc4)CC3)C2=O)C1 (centres undefined),8.7 µM
4,NCCNC(=O)CN1CN(c2ccccc2)C2(CCN(C(=O)c3ccc(C4CCCCC4)cc3)CC2)C1=O,26.5 µM
5,CC(C)(C)OC(=O)NCCCNC(=O)CN1CN(c2ccccc2)C2(CCN(C(=O)c3ccc(C4CCCCC4)cc3)CC2)C1=O,3.7 µM
6,CCOC(=O)C1CCCN(C(=O)CN2CN(c3ccccc3)C3(CCN(C(=O)c4ccc(C5CCCCC5)cc4)CC3)C2=O)C1 (centres undefined),4.2 µM
7,CCC1CCCN(C(=O)CN2CN(c3ccccc3)C3(CCN(C(=O)c4ccc(C(C)(C)C)cc4)CC3)C2=O)C1 (centres undefined),3.9 µM
8,COC(=O)CCNC(=O)CN1CN(c2ccccc2)C2(CCN(C(=O)c3ccc(C4CCCCC4)cc3)CC2)C1=O,4.5 µM
9,CC(C)(C)OC(=O)NCCCCNC(=O)CN1CN(c2ccccc2)C2(CCN(C(=O)c3ccc(C4CCCCC4)cc3)CC2)C1=O,5.5 µM
10,CCc1c(C)c(C2CCN(C(=O)CN3CN(c4ccccc4)C4(CCN(C(=O)c5ccc(C(C)(C)C)cc5)CC4)C3=O)CC2)nn1CC,5.4 µM
11,CCOC(=O)C1CCN(C(=O)CN2CN(c3ccccc3)C3(CCN(C(=O)c4ccc(C5CCCCC5)cc4)CC3)C2=O)CC1,0.9 µM
12,CS(=O)(=O)N1CCN(C(=O)CN2CN(c3ccccc3)C3(CCN(C(=O)c4ccc(C5CCCCC5)cc4)CC3)C2=O)CC1,6.3 µM
13,CC1CCCN(C(=O)CN2CN(c3ccccc3)C3(CCN(C(=O)c4ccc(C5CCCCC5)cc4)CC3)C2=O)C1 (centres undefined),3.6 µM
14,CS(=O)(=O)NCCNC(=O)CN1CN(c2ccccc2)C2(CCN(C(=O)c3ccc(C4CCCCC4)cc3)CC2)C1=O,7 µM
15,O=C(CN1CN(c2ccccc2)C2(CCN(C(=O)c3ccc(C4CCCCC4)cc3)CC2)C1=O)N1CCC(CO)CC1,1.1 µM
16,CC(C)(C)c1ccc(C(=O)N2CCC3(CC2)C(=O)N(CC(=O)N2CCCCC2CO)CN3c2ccccc2)cc1 (centres undefined),11.8 µM
17,CC(C)(C)OC(=O)NC1CCN(C(=O)CN2CN(c3ccccc3)C3(CCN(C(=O)c4ccc(C5CCCCC5)cc4)CC3)C2=O)CC1,4.8 µM
18,O=C(CN1CN(c2ccccc2)C2(CCN(C(=O)c3ccc(C4CCCCC4)cc3)CC2)C1=O)N1CCNCC1,6.5 µM
19,CC(C)(C)c1ccc(C(=O)N2CCC3(CC2)C(=O)N(CC(=O)NCCCCCN)CN3c2ccccc2)cc1,7.7 µM
20,CC(C)(C)c1ccc(C(=O)N2CCC3(CC2)C(=O)N(CC(=O)N2CCN(S(C)(=O)=O)CC2)CN3c2ccccc2)cc1,19 µM
21,CCC1CCCN(C(=O)CN2CN(c3ccccc3)C3(CCN(C(=O)c4ccc(C5CCCCC5)cc4)CC3)C2=O)C1 (centres undefined),2.6 µM
22,CC(C)(C)c1ccc(C(=O)N2CCC3(CC2)C(=O)N(CC(=O)N2CCC(CCO)CC2)CN3c2ccccc2)cc1,2.6 µM
23,CC(C)(C)OC(=O)NCCNC(=O)CN1CN(c2ccccc2)C2(CCN(C(=O)c3ccc(C4CCCCC4)cc3)CC2)C1=O,13.7 µM
24,CCn1nc(Cc2ccccc2)cc1C1CCN(C(=O)CN2CN(c3ccccc3)C3(CCN(C(=O)c4ccc(C(C)(C)C)cc4)CC3)C2=O)CC1,6.4 µM
25,CC(C)(C)c1ccc(C(=O)N2CCC3(CC2)C(=O)N(CC(=O)N2CCN(S(=O)(=O)c4ccccc4)CC2)CN3c2ccccc2)cc1,15 µM
26,CC(C)(C)OC(=O)NC1CCCN(C(=O)CN2CN(c3ccccc3)C3(CCN(C(=O)c4ccc(C5CCCCC5)cc4)CC3)C2=O)C1 (centres undefined),4.4 µM
27,CC1(C)CC(OC(=O)CN2CN(c3ccccc3)C3(CCN(C(=O)c4ccc(C5CCCCC5)cc4)CC3)C2=O)CC(C)(C)N1,0.6 µM
